# System: peripheral blood lymphocyte count
# Assay: Evaluation of peripheral blood lymphocyte count-decreasing effect in mice
# Type: in vivo, male BALB/c mice
# Details: Mus musculus, ip, intraperitoneal administration, 24 hr after administration, in 20% cyclodextrin, read-out: ED50 (dose necessary for 50% reduction of the lymphocyte count of vehicle group as 100%)
# Procedure: The compound of the present invention was dissolved or suspended in 20% cyclodextrin (manufactured by NIHON SHOKUHIN KAKO CO., LTD), and intraperitoneally administered to a 7- to 10-week-old male BALB/c mice (CHARLES RIVER LABORATORIES, JAPAN INC.) at a dose of 0.001-10 mg/kg body weight. After 24 hr from the administration of the compound of the present invention, peripheral blood (about 0.3 ml) was drawn from the postcava of the mouse with a heparin sodium (manufactured by NovoNordisk)-treated tuberculin syringe (manufactured by TERUMO CORPORATION) under ether anesthesia. The blood (0.1 ml) was hemolysed with an automatic hemolysis processing apparatus (TQ-Prep, manufactured by BECKMAN COULTER, Inc.), and the number of lymphocytes was counted with a Flow Cytometer (CYTOMICS FC 500, manufactured by BECKMAN COULTER, Inc.) by a gating method using scattering at the front and the side of the laser beam as indices and using Flow-Count™ Fluorospheres (manufactured by BECKMAN COULTER, Inc.), whose standard particle count is known, as internal standard. A dose necessary for 50% reduction of the lymphocyte count of vehicle group as 100% was calculated and used as ED50 value (mg/kg body weight).
row,SMILES,ED50 [mg/kg]
1,"CCCCCCOc1ccc2c(=O)c3ccc(CCC(N)(CO)CO)cc3sc2c1 [Example 20, 3-[3-amino-4-hydroxy-3-(hydroxymethyl)butyl]-6-hexyloxy-9H-thioxanthen-9-one]",0.05
2,"CCCCCOc1ccc2oc3ccc(CCC(N)(CO)CO)cc3c(=O)c2c1 [Example 22, 2-[3-amino-4-hydroxy-3-(hydroxymethyl)butyl]-7-pentyloxy-9H-xanthen-9-one]",0.07
3,"CCCCCCOc1ccc2oc3ccc(CCC(N)(CO)CO)cc3c(=O)c2c1 [Example 23, 2-[3-amino-4-hydroxy-3-(hydroxymethyl)butyl]-7-hexyloxy-9H-xanthen-9-one]",0.03
4,"CCCCCOc1ccc2c(=O)c3ccc(CCC(N)(CO)CO)cc3oc2c1 [Example 41, 3-[3-amino-4-hydroxy-3-(hydroxymethyl)butyl]-6-pentyloxy-9H-xanthen-9-one]",0.37
5,"NC(CO)(CO)CCc1ccc2sc3ccc(Oc4cccc(C(F)(F)F)c4)cc3c(=O)c2c1 [Example 44, 2-[3-amino-4-hydroxy-3-(hydroxymethyl)butyl]-7-[3-(trifluoromethyl)phenoxy]-9H-thioxanthen-9-one]",0.01
6,"NC(CO)(CO)CCc1ccc2sc3cc(Oc4cccc(C(F)(F)F)c4)ccc3c(=O)c2c1 [Example 54, 2-[3-amino-4-hydroxy-3-(hydroxymethyl)butyl]-6-[3-(trifluoromethyl)phenoxy]-9H-thioxanthen-9-one]",0.02
7,"NC(CO)(CO)CCc1ccc2sc3cc(Oc4ccc(Cl)cc4)ccc3c(=O)c2c1 [Example 55, 2-[3-amino-4-hydroxy-3-(hydroxymethyl)butyl]-6-(4-chlorophenoxy)-9H-thioxanthen-9-one]",0.03
8,"NC(CO)(CO)CCc1ccc2sc3ccc(Oc4cccc(Cl)c4)cc3c(=O)c2c1 [Example 76, 2-[3-amino-4-hydroxy-3-(hydroxymethyl)butyl]-7-(3-chlorophenoxy)-9H-thioxanthen-9-one]",0.04
9,"Cl.NC(CO)(CO)CCc1ccc2c(=O)c3cc(Oc4cccc(C(F)(F)F)c4)ccc3oc2c1 [Example 83, 6-[3-amino-4-hydroxy-3-(hydroxymethyl)butyl]-2-[3-(trifluoromethyl)phenoxy]-9H-xanthen-9-one]",0.05
10,"NC(CO)(CO)CCc1ccc2oc3cc(Oc4ccc(F)cc4)ccc3c(=O)c2c1 [Example 105, 2-[3-amino-4-hydroxy-3-(hydroxymethyl)butyl]-6-(4-fluorophenoxy)-9H-xanthen-9-one]",0.22
11,"COc1ccc(Oc2ccc3c(=O)c4cc(CCC(N)(CO)CO)ccc4oc3c2)cc1 [Example 108, 2-[3-amino-4-hydroxy-3-(hydroxymethyl)butyl]-6-(4-methoxyphenoxy)-9H-xanthen-9-one]",0.05
12,"NC(CO)(CO)CCc1ccc2oc3cc(Oc4ccc(F)c(Cl)c4)ccc3c(=O)c2c1 [Example 116, 2-[3-amino-4-hydroxy-3-(hydroxymethyl)butyl]-6-(3-chloro-4-fluorophenoxy)-9H-xanthen-9-one]",0.09
13,"NC(CO)(CO)CCc1ccc2c(=O)c3cc(Oc4ccc(F)c(Cl)c4)ccc3oc2c1 [Example 138, 6-[3-amino-4-hydroxy-3-(hydroxymethyl)butyl]-2-(3-chloro-4-fluorophenoxy)-9H-xanthen-9-one]",0.06
14,"COc1ccc(Oc2ccc3c(=O)c4ccc(CCC(N)(CO)CO)cc4oc3c2)cc1 [Example 143, 3-[3-amino-4-hydroxy-3-(hydroxymethyl)butyl]-6-(4-methoxyphenoxy)-9H-xanthen-9-one]",0.14
15,"Cl.NC(CO)(CO)CCc1ccc2oc3cc(-c4cccc(OC(F)(F)F)c4)ccc3c(=O)c2c1 [Example 164, 2-[3-amino-4-hydroxy-3-(hydroxymethyl)butyl]-6-[3-(trifluoromethoxy)phenyl]-9H-xanthen-9-one]",0.04
16,"NC(CO)(CO)CCc1ccc2oc3cc(-c4cccc(C(F)(F)F)c4)ccc3c(=O)c2c1 [Example 172, 2-[3-amino-4-hydroxy-3-(hydroxymethyl)butyl]-6-[3-(trifluoromethyl)phenyl]-9H-xanthen-9-one]",0.09
17,"CCCC/C=C/c1ccc2oc3cc(CCC(N)(CO)CO)ccc3c(=O)c2c1 [Example 180, 6-[3-amino-4-hydroxy-3-(hydroxymethyl)butyl]-2-[(1E)-hex-1-en-1-yl]-9H-xanthen-9-one]",0.03

# From patent US9657043B2, “Amine compound and use thereof for medical purposes” (MITSUBISHI TANABE PHARMA CORPORATION, priority 2012, dated 2017)
